Consider 19 compounds from US20240408093A1, “HETEROBIFUNCTIONAL COMPOUNDS AND THEIR USE IN TREATING DISEASE” (HALDA THERAPEUTICS OPCO, INC., priority 2022, published 2024).

The subject of experiment [1] is GSPT1. The experiment in a line: Payload release assay (DC50 readout), GSPT1 degradation in the presence of recombinant target protein. It is filed as cell-based. As to conditions: I-series compounds (GSPT1 readout inferred). The procedure:
Exemplary compounds were tested for ability to cause degradation of CCNK or GSPT1 in the presence of recombinant target protein.
HEK293 LgBiT/GSPT1 HiBiT CRISPR Knock-in cells (Promega) were cultured in DMEM (Gibco 11995), supplemented with 10% Heat-inactivated FBS (Gibco A38400-01) and 1% Penicillin/Streptomycin (Gibco 15140-122) and 200 Vg/ml Hygromycin B (Gibco 10-687-010) at 37° C. with 5% CO2 in a humidified tissue culture incubator. HEK293 LgBiT/CCNK HiBiT cells (in-house, described above) were cultured in DMEM (Gibco 11995), supplemented with 10% Heat-inactivated FBS (Gibco A38400-01) and 1% Penicillin/Streptomycin (Gibco 15140-122) 200 Vg/ml Hygromycin B (Gibco 10-687-010), and 1 Vg/ml Puromycin Dihydrochloride (Thermo A1113803) at 37° C. with 5% CO2 in a humidified tissue culture incubator. Cells were seeded (1000 cells/well for HEK293 LgBiT/GSPT1 HiBiT cells or 3000 cells/well for HEK293 LgBiT/CCNK HiBiT cells) 384-well, tissue culture-treated white plates (Perkin Elmer 6007680) in 10 μL media lacking selection for 18-24 hours. Plates were spun at 300 g for 30 seconds and stored in the incubator overnight. After 24 hours, a 5 μL aliquot of recombinant target protein (final concentration of either 5 μM KRAS amino acids 1-169, C51S, C80L, C118S, G12C or 3 μM EGFR amino acids 696-1022 or 3 μM EGFR amino acids 696-1022, T790M, L858R) was added to wells, followed immediately by a 5 μL aliquot of 4× compound-containing medium supplemented with Endurazine Substrate (Promega N2570) was added in each well, at a final top concentration of 10 μM test compound and 0.5× Endurazine, with 4-fold dilutions, using DMSO alone as a negative control. Plates were then spun at 300×g for 3 minutes again and cultured at 37° C. with 5% CO2. After 6 hours the plate was read on Envision MultiMode Plate Reader 2105 (Perkin Elmer) to measure luminescence signal. Data was normalized to DMSO treated cell wells. A four-parameter non-linear regression curve fit was applied to dose-response data in Prism to determine the half maximal growth inhibitory concentration (GI50) of each compound.

For experiment [2], the target named is KRAS G12C (Homo sapiens, UniProt P01116, G12C). In words: KRAS G12C cellular target engagement assay (SW1573 cells). It is filed as cell-based. More on the design: host or cells: SW1573. The settings on record: 17 hours, read-out: TE50 (the source's name). The procedure:
SW1573 cells (ATCC CRL-2170) were cultured in RPMI 1640 (Gibco A1049101), supplemented with 10% Heat-inactivated FBS (Gibco Cat. #A38400-01) and 1% Penicillin/Streptomycin (Gibco Cat. #15140-122) in an incubator set at 37° C. and 5% CO2. Cells were seeded at 100,000 cells/ml in 1 ml of complete media in a 24-well, tissue culture-treated plate (Falcon 353226) and incubated overnight. Cells were treated with increasing concentrations of compound and let incubate at 37C and 5% CO2 for 17 hours, after which media was aspirated and cells were lysed in 75 uL RIPA Lysis and Extraction Buffer (Thermo 89901) supplemented with 5 mM MgCl2, Protease and Phosphatase inhibitor cocktail (Thermo 1861281), and Universal Nuclease (Thermo 88700). Plates with RIPA were shaken at 4° C. at 600 rpm for 15 min. After shaking samples, they were collected and spun down at 21,000 g for 15 min at 4° C. Following centrifugation, ˜10 ug of lysate was added to Laemmli Sample Buffer (Bio-Rad 1610747) plus 10% beta-mercaptoethanol, boiled for 15 minutes at 65° C. and loaded onto 12% Mini-PROTEAN TGX™ Precast Protein Gels (Bio-Rad). Protein was transferred to a nitrocellulose membrane (Thermo LC2000) using the iBlot 2 Dry Blotting System (Thermo). After transfer, membranes were washed in 1× TBST (Bioland Scientific LLC TBST0103) 3× for 5 min. Following the wash, blocking buffer (Rockland MB-070) was added for 1 hour at room temperature. Primary antibodies against KRAS (LifeSpan Bio LS-C175665) and actin (Cell Signaling Technology 8457) were added overnight at 4° C. Membranes were then washed again 3× for 5 min in 1× TBST. Secondary antibodies (LI-COR 926-68072 and 926-68073) were added and shaken for 1 hr at room temperature. Membranes were then washed 3× for 5 min in 1×TBST and developed. Membranes were placed on an Odyssey imager (LI-COR).

Setting [3] is: 0 μM recombinant KRAS G12C, read-out: DC50 at 0 μM KRAS G12C.
Setting [4] is: 5 μM recombinant KRAS G12C, read-out: DC50 at 5 μM KRAS G12C.
Where [5] appears, read: 0 μM recombinant EGFR T790M L858R, read-out: DC50 at 0 μM EGFR T790M L858R.
Where [6] appears, read: 0 μM recombinant EGFR WT, read-out: DC50 at 0 μM EGFR WT.
Where [7] appears, read: 3 μM recombinant EGFR T790M L858R, read-out: DC50 at 3 μM EGFR T790M L858R.
The mark [8] stands for this setting: 3 μM recombinant EGFR WT, read-out: DC50 at 3 μM EGFR WT.

Where two headings read alike, the source gives them in different places.

By DC50 is commonly meant the concentration giving 50% degradation.

Chain of KRAS G12C (P01116 1-188 isoform P01116-2 G12C): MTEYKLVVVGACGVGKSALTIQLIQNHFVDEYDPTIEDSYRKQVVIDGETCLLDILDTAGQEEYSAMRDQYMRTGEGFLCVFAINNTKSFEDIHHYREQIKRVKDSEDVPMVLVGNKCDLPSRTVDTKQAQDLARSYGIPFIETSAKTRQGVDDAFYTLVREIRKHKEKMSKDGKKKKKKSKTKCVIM

On to `C=C(COc1ccc(CN2C(=O)CCC(N3Cc4cc(CNC(=O)Nc5ccc(C)c(Cl)c5)ccc4C3=O)C2=O)cc1)C(=O)N1CCN(c2nc(OC[C@H]3CCCN3C)nc3c2CCN(c2cccc4cccc(Cl)c24)C3)C[C@@H]1CC#N` (stereo in doubt) [Compound I-44], for which the DC50 in experiment [1] (setting [3]) is more than 10000 nM; in experiment [1] (setting [4]), 250 to 5000 nM. Also, the EC50 in experiment [2] lay within 250 to 5000 nM.
With `C=C(COc1cc(Cl)cc(NC(=O)NCc2ccc3c(c2)CN(C2CCC(=O)NC2=O)C3=O)c1)C(=O)N1CCN(c2nc(OC[C@@H]3CCCN3C)nc3c2CCN(c2cccc4cccc(Cl)c24)C3)C[C@@H]1CC#N` (stereo partly drawn) [Compound I-35], the DC50 in experiment [1] (setting [3]) was 250 to 5000 nM; in experiment [1] (setting [4]) it was less than 250 nM. For the same compound, the EC50 in experiment [2] is 250 to 5000 nM.
Turning to `C=C(CN(C(=O)NCc1ccc2c(c1)CN(C1CCC(=O)NC1=O)C2=O)c1ccc(C)c(Cl)c1)C(=O)Nc1cc(Nc2ncc(-c3cn(C)c4ccccc34)cn2)c(OC)cc1N(C)CCN(C)C` (stereo not drawn) [Compound I-42], the DC50 in experiment [1] (setting [5]) was 250 to 5000 nM; in experiment [1] (setting [6]) it was 5000 to 10000 nM; in experiment [1] (setting [7]), less than 250 nM; in experiment [1] (setting [8]), less than 250 nM.
Regarding `C=C(COc1cc(Cl)cc(NC(=O)NCc2ccc3c(c2)CN(C2CCC(=O)NC2=O)C3=O)c1)C(=O)N[C@@H]1CN(c2nc(Nc3cn(C)nc3OC)c3ncn(C)c3n2)C[C@H]1F` (stereo partly drawn) [Compound I-45], the DC50 in experiment [1] (setting [5]), in experiment [1] (setting [6]), in experiment [1] (setting [7]) and in experiment [1] (setting [8]) was less than 250 nM throughout.
For the compound `C=C(COc1cc(Cl)c(OC)cc1NC(=O)NCc1ccc2c(c1)CN(C1CCC(=O)NC1=O)C2=O)C(=O)N1CCN(c2nc(OC[C@@H]3CCCN3C)nc3c2CCN(c2cccc4cccc(Cl)c24)C3)C[C@@H]1CC#N` (stereo partly drawn) [Compound I-46], the DC50 was 250 to 5000 nM in experiment [1] (setting [3]) and less than 250 nM in experiment [1] (setting [4]). The EC50 in experiment [2] lay in the range of 250 to 5000 nM.
In the case of `C=C(COc1ccc(Cl)cc1NC(=O)NCc1ccc2c(c1)CN(C1CCC(=O)NC1=O)C2=O)C(=O)N[C@@H]1CN(c2nc(Nc3cn(C)nc3OC)c3ncn(C)c3n2)C[C@H]1F` (stereo partly drawn) [Compound I-47], the DC50 in experiment [1] (setting [5]), in experiment [1] (setting [6]), in experiment [1] (setting [7]) and in experiment [1] (setting [8]) was less than 250 nM each time.
As to `C=C(COc1cc(NC(=O)NCc2ccc3c(c2)CN(C2CCC(=O)NC2=O)C3=O)cc(C(F)(F)F)c1)C(=O)N1CCN(c2nc(OC[C@@H]3CCCN3C)nc3c2CCN(c2cccc4cccc(Cl)c24)C3)C[C@@H]1CC#N` (stereo partly drawn) [Compound I-48], the 50% degradation concentration (DC50) in experiment [1] (setting [3]) and in experiment [1] (setting [4]) was 250 to 5000 nM each time. Further, the EC50 in experiment [2] was in the range of 250 to 5000 nM.
On to `C=C(COc1cccc(NC(=O)NCc2ccc3c(c2)CN(C2CCC(=O)NC2=O)C3=O)c1)C(=O)N1CCN(c2nc(OC[C@@H]3CCCN3C)nc3c2CCN(c2cccc4cccc(Cl)c24)C3)C[C@@H]1CC#N` (stereo partly drawn) [Compound I-49], for which the DC50 in experiment [1] (setting [3]) was 250 to 5000 nM; in experiment [1] (setting [4]) it was more than 10000 nM. The EC50 in experiment [2] was less than 250 nM.
Regarding `C=C(COc1cc(Cl)cc(NC(=O)NCc2ccc3c(c2)CN(C2CCC(=O)NC2=O)C3=O)c1)C(=O)N1C[C@H](COc2nc(Nc3cnn(C)c3)nc3[nH]cc(Cl)c23)[C@@H](OC)C1` (stereo partly drawn) [Compound I-54], the DC50 in experiment [1] (setting [5]), in experiment [1] (setting [6]), in experiment [1] (setting [7]) and in experiment [1] (setting [8]) was less than 250 nM in each case.
As for `C=C(COc1cc(Cl)cc(NC(=O)NCc2ccc3c(c2)CN(C2CCC(=O)NC2=O)C3=O)c1)C(=O)Nc1cccc(Oc2nc(Nc3ccc(N4CCN(C)CC4)cc3)nc3ccsc23)c1` (stereo not drawn) [Compound I-55], the DC50 in experiment [1] (setting [5]) is less than 250 nM; in experiment [1] (setting [6]), less than 250 nM; in experiment [1] (setting [7]), less than 250 nM; in experiment [1] (setting [8]) it was 250 to 5000 nM.
Turning to `C=C(COc1cc(Cl)cc(NC(=O)NCc2ccc3c(c2)CN(C2CCC(=O)NC2=O)C3=O)c1)C(=O)Nc1cc(Nc2nccc(-c3cn(C)c4ccccc34)n2)c(OC)cc1N(C)CCN(C)C` (stereo not drawn) [Compound I-59], the DC50 in experiment [1] (setting [5]), in experiment [1] (setting [6]), in experiment [1] (setting [7]) and in experiment [1] (setting [8]) was less than 250 nM each time.
Consider `C=C(COc1c(Cl)cccc1NC(=O)NCc1ccc2c(c1)CN(C1CCC(=O)NC1=O)C2=O)C(=O)Nc1cc(Nc2nccc(-c3cn(C)c4ccccc34)n2)c(OC)cc1N(C)CCN(C)C` (stereo not drawn) [Compound I-60], for which the DC50 in experiment [1] (setting [5]), in experiment [1] (setting [6]), in experiment [1] (setting [7]) and in experiment [1] (setting [8]) was 250 to 5000 nM in each case.
Turning to `C=C(COc1cc(Cl)cc(NC(=O)NCc2ccc3c(c2)CN(C2CCC(=O)NC2=O)C3=O)c1)C(=O)Nc1cccc(-c2cccc3cnc(Nc4ccc(N5CCN(CCO)CC5)c(F)c4F)nc23)c1` (stereo not drawn) [Compound I-61], the DC50 in experiment [1] (setting [5]), in experiment [1] (setting [6]), in experiment [1] (setting [7]) and in experiment [1] (setting [8]) was less than 250 nM throughout.
Take `C=C(COc1c(Cl)cccc1NC(=O)NCc1ccc2c(c1)CN(C1CCC(=O)NC1=O)C2=O)C(=O)N[C@@H]1CN(c2nc(Nc3cn(C)nc3OC)c3ncn(C)c3n2)C[C@H]1F` (stereo partly drawn) [Compound I-69]: the DC50 in experiment [1] (setting [5]), in experiment [1] (setting [6]), in experiment [1] (setting [7]) and in experiment [1] (setting [8]) was less than 250 nM each time.
With `C=C(CN(C(=O)NCc1ccc2c(c1)CN(C1CCC(=O)NC1=O)C2=O)c1ccc(C)c(Cl)c1)C(=O)Nc1cccc(Oc2nc(Nc3ccc(N4CCN(C)CC4)cc3)nc3ccsc23)c1` (stereo not drawn) [Compound I-70], the DC50 in experiment [1] (setting [5]), in experiment [1] (setting [6]), in experiment [1] (setting [7]) and in experiment [1] (setting [8]) was 250 to 5000 nM throughout.
`C=C(CN(C(=O)NCc1ccc2c(c1)CN(C1CCC(=O)NC1=O)C2=O)c1ccc(C)c(Cl)c1)C(=O)N1C[C@@H](COc2nc(Nc3cnn(C)c3)nc3[nH]cc(Cl)c23)[C@H](OC)C1` (stereo partly drawn) [Compound I-71]: the DC50 in experiment [1] (setting [5]), in experiment [1] (setting [6]), in experiment [1] (setting [7]) and in experiment [1] (setting [8]) was 250 to 5000 nM in each case.
Take `C=C(CN1C(=O)CCC(N2Cc3cc(CNC(=O)Nc4ccc(C)c(Cl)c4)ccc3C2=O)C1=O)C(=O)Nc1cc(Nc2ncc(-c3cn(C)c4ccccc34)cn2)c(OC)cc1N(C)CCN(C)C` (stereo not drawn) [Compound I-87]: the DC50 in experiment [1] (setting [5]) and in experiment [1] (setting [6]) was less than 250 nM in each case.
Turning to `C=C(COc1cc(-c2ccccn2)ccc1CNc1nc(N[C@H](CC)CO)nc2c1ncn2C(C)C)C(=O)N1CCN(c2nc(OC[C@@H]3CCCN3C)nc3c2CCN(c2cccc4cccc(Cl)c24)C3)C[C@@H]1CC#N` [II-186], the EC50 in experiment [2] lay in the range of 250 to 5000 nM.
The same measure, in the same setting: next, `C=C(CN1CCN(c2nc(NCc3nc4cc(C)ccc4[nH]3)n3ncc(Br)c3n2)CC1)C(=O)N1CCN(c2nc(OC[C@@H]3CCCN3C)nc3c2CCN(c2cccc4cccc(Cl)c24)C3)C[C@@H]1CC#N` [II-190]: 250 to 5000 nM.
